The source made the active and inactive calls. The rule behind the calls is not given here.
Target: T1, Solute carrier family 2, facilitated glucose transporter member 4 (Rattus norvegicus) (UniProt P19357)
T1 sequence (whole entry): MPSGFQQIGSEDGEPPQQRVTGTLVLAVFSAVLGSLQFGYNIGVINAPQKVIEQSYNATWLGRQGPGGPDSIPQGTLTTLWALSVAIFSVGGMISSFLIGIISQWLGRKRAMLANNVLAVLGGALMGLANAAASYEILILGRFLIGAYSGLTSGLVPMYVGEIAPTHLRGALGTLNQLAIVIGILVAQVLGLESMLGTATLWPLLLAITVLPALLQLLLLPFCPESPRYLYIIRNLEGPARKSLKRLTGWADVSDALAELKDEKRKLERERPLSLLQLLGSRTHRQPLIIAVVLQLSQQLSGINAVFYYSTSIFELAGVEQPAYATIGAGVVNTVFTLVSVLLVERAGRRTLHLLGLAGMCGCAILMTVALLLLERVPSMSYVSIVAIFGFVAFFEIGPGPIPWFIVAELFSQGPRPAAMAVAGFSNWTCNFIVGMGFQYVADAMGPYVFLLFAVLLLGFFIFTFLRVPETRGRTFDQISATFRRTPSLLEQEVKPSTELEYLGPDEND
Experiment: Enhancement of GLUT4 translocation in rat L6 cells expressing pIRAP-mOrange cDNAs at 10 uM after 10 mins by fluorescence assay relative to control
Assay type: cell-based

SMILES	fold change (FC)	Activity
C[C@H]1[C@H](C)CC[C@]2(C(=O)O)CC[C@]3(C)C(=CC[C@@H]4[C@@]5(C)C[C@@H](O)[C@H](O)[C@@](C)(CO)[C@@H]5[C@H](O)C[C@]43C)[C@H]12	0.7	
O=C1c2c(O)cc(O)cc2O[C@@H](c2ccc(O)cc2)[C@@H]1O		inactive
O=c1c(O[C@@H]2O[C@H](CO)[C@@H](O)[C@H](O)[C@H]2O)c(-c2ccc(O)c(O)c2)oc2cc(O)cc(O)c12		inactive
C[C@H]1[C@H](C)CC[C@]2(C(=O)O)CC[C@]3(C)C(=CC[C@@H]4[C@@]5(C)C[C@@H](O)[C@H](O)[C@@](C)(CO)[C@@H]5CC[C@]43C)[C@H]12	0.47	
C[C@@H]1CC[C@]2(C(=O)O)CC[C@]3(C)C(=CC[C@@H]4[C@@]5(C)C[C@@H](O)[C@@H](O)C(C)(C)[C@@H]5CC[C@]43C)[C@@H]2[C@]1(C)O	0.7	
CC(C)CC1C2=C(Oc3cc(O)c(C(=O)CCc4ccccc4)c(O)c31)C(C)(C)C(=O)C(C)(C)C2=O (racemic)	0.49	
C=C(C)[C@@H]1CC[C@]2(C(=O)O)CC[C@]3(C)[C@H](CC[C@@H]4[C@@]5(C)CC[C@H](O)C(C)(C)[C@@H]5CC[C@]43C)[C@@H]12	2.38	
C[C@H]1[C@H](C)CC[C@]2(C(=O)O)CC[C@]3(C)C(=CC[C@@H]4[C@@]5(C)C[C@@H](O)[C@H](O)C(C)(C)[C@@H]5CC[C@]43C)[C@H]12	1.78	
O=C(O)c1cc(O)c(O)c(O)c1		inactive
CC1(C)CC[C@]2(C(=O)O)CC[C@]3(C)C(=CC[C@@H]4[C@@]5(C)CC[C@H](O)C(C)(C)[C@@H]5CC[C@]43C)[C@@H]2C1	0.7	
C[C@H]1[C@H](C)CC[C@]2(C(=O)O)CC[C@]3(C)C(=CC[C@@H]4[C@@]5(C)CC[C@H](O)C(C)(C)[C@@H]5CC[C@]43C)[C@H]12	0.7	
O=c1c(OC2O[C@H](CO)[C@@H](O)[C@H](O)[C@H]2O)c(-c2cc(O)c(O)c(O)c2)oc2cc(O)cc(O)c12 (some centres not stated)		inactive

Reference: ChEMBL document CHEMBL3297643, “Chemical constituents from Eucalyptus citriodora Hook leaves and their glucose transporter 4 translocation activities” (Bioorg Med Chem Lett, 2014)
